Patent US8415469B2, “Compounds and methods for kinase modulation, and indications therefor” (Plexxikon Inc., priority 2005, dated 2013)

Experiments:
Type in all cases: biochemical
[1] = target: T1, FGFR1 (Homo sapiens, UniProt P11362, C488A/C584S); test: AlphaScreen kinase assay, FGFR1; details: read-out: IC50, activity toward kinase FGFR
T1 construct: P1351.pET N6 BI-PTP FGFR A458-E765-X C488A, C584S; made in house; host or cells: E. coli (PTP1B co-expressed)

[2] = target: T2, Stk6 (Homo sapiens, UniProt O14965); test: Z'-Lyte FRET kinase assay (Invitrogen), Stk6; details: read-out: IC50, activity toward kinase Stk6
T2 construct: purchased Invitrogen (Carlsbad, Calif.), screening service
T2 sequence (O14965 1-403): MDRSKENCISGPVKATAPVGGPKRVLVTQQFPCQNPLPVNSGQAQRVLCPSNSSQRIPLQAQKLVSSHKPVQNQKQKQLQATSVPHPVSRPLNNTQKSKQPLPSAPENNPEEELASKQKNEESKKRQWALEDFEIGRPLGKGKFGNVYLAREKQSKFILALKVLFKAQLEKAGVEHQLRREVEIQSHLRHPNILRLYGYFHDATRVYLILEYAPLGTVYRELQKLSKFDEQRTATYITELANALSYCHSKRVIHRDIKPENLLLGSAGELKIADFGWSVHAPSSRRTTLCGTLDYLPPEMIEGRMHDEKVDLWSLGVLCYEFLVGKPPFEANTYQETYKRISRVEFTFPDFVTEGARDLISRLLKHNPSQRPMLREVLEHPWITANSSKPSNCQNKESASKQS

[3] = target: T3, B-Raf V600E (Homo sapiens, UniProt P15056, V600E); test: AlphaScreen kinase assay, B-Raf V600E; details: read-out: IC50, activity toward kinase B-Raf V600E
T3 construct: P4254. pFastBacBD-CDC37 BRAF D437-K722-X, V600E; His6 with pFastBac HT leader (TEV site) (N); made in house; host or cells: Sf9 (baculovirus; chaperone CDC37 co-expressed)

[4] = target: T4, Ret (Homo sapiens, UniProt P07949); test: AlphaScreen kinase assay, Ret; details: read-out: IC50, activity toward kinase Ret
T4 construct: P1378.pET-SF BI-PTP RET H661-R1012 HIS; made in house
T4 sequence (P07949 with tags, fused parts or gaps): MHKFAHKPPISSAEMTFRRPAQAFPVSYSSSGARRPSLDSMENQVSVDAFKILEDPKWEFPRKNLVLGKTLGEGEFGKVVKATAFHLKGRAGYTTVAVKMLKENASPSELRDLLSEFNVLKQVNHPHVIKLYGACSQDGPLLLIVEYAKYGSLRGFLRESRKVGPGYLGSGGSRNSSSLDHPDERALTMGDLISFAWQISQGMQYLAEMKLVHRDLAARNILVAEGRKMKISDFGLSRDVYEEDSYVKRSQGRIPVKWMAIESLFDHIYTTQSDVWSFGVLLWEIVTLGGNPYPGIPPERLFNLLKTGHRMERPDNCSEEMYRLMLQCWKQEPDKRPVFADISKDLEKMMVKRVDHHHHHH

[5] = target: T5, Kit (Homo sapiens, UniProt P10721); test: AlphaScreen kinase assay, Kit; details: read-out: IC50, activity toward kinase Kit
T5 construct: P1332.N6 BI PTP KIT M552-K948-X COD; His6 (N); made in house; host or cells: E. coli (PTP1B co-expressed)

[6] = target: T6, Kdr (Homo sapiens, UniProt P35968); test: Z'-Lyte FRET kinase assay (Invitrogen), Kdr; details: read-out: IC50, activity toward kinase Kdr
T6 construct: purchased Invitrogen (assay run by Invitrogen)

[7] = target: T7, Jnk3 (Homo sapiens, UniProt P53779); test: AlphaScreen kinase assay, Jnk3; details: read-out: IC50, activity toward kinase Jnk3
T7 construct: purchased Upstate Biotechnology

[8] = target: T8, Fak (Homo sapiens, UniProt Q05397); test: AlphaScreen kinase assay, Fak; details: read-out: IC50, activity toward kinase Fak
T8 construct: P1358.pFastBacHtb FAK S411-Q686-X; His6 with pFastBacHTb leader (TEV site) (N); made in house; host or cells: Sf9 (baculovirus)

[9] = target: T9, B-Raf (Homo sapiens, UniProt P15056); test: AlphaScreen kinase assay, B-Raf; details: read-out: IC50, activity toward kinase B-Raf
T9 construct: purchased Upstate Biotechnology

[10] = target: T10, Fms (Homo sapiens, UniProt P07333); test: AlphaScreen kinase assay, Fms; details: read-out: IC50, activity toward kinase Fms
T10 construct: purchased Upstate Biotechnology
T10 sequence (P07333 20-972): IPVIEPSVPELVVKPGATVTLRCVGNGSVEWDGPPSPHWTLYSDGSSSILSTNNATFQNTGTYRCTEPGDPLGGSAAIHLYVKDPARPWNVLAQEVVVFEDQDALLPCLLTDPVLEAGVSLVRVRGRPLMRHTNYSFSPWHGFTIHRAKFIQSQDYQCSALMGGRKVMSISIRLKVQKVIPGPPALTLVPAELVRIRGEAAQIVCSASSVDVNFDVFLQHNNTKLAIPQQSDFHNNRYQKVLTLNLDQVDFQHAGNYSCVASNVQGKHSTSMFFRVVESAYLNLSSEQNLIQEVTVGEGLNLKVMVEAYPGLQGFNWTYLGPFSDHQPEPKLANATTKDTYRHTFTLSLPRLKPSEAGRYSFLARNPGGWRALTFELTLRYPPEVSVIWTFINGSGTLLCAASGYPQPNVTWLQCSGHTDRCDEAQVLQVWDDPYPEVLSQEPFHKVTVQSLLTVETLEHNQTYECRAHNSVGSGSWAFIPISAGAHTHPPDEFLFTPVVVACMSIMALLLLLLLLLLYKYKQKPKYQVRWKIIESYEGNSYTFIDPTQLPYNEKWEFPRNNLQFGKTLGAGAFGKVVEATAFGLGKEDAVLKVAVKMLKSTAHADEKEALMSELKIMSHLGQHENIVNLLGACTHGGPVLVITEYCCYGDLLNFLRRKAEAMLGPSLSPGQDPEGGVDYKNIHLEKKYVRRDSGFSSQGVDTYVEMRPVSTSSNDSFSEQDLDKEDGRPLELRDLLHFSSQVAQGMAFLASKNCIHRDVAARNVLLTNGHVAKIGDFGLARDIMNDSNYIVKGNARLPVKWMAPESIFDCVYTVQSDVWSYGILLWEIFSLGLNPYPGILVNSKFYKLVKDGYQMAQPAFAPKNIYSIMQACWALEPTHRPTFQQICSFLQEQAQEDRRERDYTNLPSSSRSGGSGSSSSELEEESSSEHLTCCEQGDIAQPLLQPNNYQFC

T5 sequence (P10721 with tags, fused parts or gaps): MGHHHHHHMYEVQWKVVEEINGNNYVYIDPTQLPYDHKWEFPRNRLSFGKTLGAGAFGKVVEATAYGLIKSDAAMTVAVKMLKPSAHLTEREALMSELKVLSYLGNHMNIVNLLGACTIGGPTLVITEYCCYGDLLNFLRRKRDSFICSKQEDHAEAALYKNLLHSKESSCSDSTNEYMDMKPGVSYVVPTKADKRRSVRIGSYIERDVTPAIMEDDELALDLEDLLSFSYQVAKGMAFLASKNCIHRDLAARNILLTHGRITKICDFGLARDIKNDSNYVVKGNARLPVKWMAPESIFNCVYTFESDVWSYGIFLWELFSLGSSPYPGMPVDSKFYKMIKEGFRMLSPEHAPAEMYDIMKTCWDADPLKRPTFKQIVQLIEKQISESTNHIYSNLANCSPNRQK
T6 sequence (P35968 20-1356): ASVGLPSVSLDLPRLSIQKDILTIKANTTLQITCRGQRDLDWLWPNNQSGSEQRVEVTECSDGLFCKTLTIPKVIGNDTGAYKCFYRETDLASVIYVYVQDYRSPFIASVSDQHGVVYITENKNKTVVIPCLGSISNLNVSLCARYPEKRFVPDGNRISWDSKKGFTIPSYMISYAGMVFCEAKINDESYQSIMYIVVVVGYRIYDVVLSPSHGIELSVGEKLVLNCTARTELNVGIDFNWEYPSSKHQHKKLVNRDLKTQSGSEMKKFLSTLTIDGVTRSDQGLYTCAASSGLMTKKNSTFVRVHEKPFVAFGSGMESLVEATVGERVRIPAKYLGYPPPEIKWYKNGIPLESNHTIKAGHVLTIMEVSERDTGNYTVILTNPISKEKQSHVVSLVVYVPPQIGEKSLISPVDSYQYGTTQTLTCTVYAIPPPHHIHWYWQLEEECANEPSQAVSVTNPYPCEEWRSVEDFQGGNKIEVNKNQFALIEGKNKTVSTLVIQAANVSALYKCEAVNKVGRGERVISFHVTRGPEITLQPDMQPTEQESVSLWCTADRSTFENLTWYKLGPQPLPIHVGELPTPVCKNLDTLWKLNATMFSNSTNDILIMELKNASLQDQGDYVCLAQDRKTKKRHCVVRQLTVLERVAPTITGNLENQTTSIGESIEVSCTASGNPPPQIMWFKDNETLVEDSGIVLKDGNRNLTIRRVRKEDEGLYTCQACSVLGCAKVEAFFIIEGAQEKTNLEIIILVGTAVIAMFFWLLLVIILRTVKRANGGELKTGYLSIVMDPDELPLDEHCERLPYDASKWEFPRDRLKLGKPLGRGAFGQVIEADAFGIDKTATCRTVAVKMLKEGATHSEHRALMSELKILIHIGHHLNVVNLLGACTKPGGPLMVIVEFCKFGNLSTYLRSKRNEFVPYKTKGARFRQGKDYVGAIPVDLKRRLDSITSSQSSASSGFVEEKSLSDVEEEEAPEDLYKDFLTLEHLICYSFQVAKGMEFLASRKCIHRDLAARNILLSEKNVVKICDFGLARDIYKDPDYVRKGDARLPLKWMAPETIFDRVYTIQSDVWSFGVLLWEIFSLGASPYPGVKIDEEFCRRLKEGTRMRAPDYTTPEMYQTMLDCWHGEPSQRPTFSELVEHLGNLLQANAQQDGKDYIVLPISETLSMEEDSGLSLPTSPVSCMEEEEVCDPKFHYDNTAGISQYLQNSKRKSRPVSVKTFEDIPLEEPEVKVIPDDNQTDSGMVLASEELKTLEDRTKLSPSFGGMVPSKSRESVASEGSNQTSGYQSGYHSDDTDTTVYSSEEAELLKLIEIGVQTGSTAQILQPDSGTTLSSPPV
T7 sequence (P53779 whole entry): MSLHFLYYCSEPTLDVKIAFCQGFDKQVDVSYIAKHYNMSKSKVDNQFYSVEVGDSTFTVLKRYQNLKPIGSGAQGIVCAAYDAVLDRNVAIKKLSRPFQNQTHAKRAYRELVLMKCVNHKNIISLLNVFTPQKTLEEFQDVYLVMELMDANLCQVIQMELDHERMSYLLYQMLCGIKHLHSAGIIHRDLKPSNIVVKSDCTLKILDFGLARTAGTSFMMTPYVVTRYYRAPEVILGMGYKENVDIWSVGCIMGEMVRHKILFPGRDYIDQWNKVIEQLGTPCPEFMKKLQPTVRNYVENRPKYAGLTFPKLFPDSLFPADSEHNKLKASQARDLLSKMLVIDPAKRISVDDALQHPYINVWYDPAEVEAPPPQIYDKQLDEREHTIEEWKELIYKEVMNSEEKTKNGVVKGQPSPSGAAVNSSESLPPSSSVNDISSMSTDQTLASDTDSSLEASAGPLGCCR
T8 sequence (Q05397 411-686): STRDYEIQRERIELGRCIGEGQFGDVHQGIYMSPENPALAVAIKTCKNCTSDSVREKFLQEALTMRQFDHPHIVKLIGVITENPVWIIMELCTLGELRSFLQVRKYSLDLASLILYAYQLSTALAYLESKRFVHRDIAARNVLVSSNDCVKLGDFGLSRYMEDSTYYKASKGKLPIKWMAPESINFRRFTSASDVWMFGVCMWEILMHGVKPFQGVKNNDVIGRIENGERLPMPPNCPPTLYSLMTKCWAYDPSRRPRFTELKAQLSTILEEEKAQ
T3 sequence (P15056 with tags, fused parts or gaps V600E): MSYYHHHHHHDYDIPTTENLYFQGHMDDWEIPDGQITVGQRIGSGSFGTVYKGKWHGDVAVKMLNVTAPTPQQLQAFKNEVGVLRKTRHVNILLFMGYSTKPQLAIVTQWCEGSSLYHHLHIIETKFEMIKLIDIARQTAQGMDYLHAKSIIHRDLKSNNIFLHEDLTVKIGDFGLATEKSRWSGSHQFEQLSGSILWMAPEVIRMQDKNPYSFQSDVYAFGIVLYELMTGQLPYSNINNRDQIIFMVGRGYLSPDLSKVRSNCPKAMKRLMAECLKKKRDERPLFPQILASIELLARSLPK
T1 sequence (P11362 458-765 C488A/C584S): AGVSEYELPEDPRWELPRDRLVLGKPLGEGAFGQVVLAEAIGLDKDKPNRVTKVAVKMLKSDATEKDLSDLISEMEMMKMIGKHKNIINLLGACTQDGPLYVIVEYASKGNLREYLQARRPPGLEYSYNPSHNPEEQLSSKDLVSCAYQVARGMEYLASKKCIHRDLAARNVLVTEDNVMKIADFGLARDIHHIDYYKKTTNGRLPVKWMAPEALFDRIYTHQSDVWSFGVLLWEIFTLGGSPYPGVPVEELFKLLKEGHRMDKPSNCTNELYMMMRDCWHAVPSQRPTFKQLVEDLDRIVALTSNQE
T9 sequence (P15056 whole entry): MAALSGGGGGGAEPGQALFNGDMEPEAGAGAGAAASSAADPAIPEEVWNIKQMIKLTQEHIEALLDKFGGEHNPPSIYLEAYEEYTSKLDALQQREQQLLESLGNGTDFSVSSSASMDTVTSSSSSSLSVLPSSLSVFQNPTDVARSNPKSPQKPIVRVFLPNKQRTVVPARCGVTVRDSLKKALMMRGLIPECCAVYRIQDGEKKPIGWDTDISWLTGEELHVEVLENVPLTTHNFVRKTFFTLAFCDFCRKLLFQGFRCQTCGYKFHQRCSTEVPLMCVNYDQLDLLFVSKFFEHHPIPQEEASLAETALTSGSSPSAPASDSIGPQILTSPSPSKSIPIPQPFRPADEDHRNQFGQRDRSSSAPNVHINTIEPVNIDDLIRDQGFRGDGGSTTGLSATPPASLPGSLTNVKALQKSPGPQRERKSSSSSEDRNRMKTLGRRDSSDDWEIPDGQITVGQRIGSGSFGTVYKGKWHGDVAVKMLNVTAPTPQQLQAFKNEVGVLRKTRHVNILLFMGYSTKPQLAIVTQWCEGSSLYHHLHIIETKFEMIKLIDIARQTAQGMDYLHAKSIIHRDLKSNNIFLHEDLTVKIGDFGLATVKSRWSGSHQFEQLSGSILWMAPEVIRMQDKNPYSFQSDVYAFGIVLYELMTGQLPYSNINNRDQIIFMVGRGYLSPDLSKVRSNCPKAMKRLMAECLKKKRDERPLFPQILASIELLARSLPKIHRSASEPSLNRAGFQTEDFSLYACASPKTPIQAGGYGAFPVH

IC50 [2] [µM] | IC50 [3] [µM] | IC50 [6] [µM] | SMILES | other results
≤ 10 | – | – | Clc1ccnc2[nH]cc(Sc3cccs3)c12 [Compound P-0489] | IC50 [1]: ≤ 10 µM
≤ 10 | – | – | FC(F)(F)c1cccc(-c2ccnc3[nH]cc(Sc4ccccn4)c23)c1 [Compound P-0290] | –
≤ 10 | ≤ 10 | – | Cc1ccccc1-c1ccnc2[nH]cc(Sc3cccs3)c12 [Compound P-0441] | –
≤ 10 | ≤ 10 | – | Fc1cccc(-c2ccnc3[nH]cc(Sc4cccs4)c23)c1 [Compound P-0181] | IC50 [4]: ≤ 10 µM
≤ 10 | ≤ 10 | – | COc1cccc(-c2ccnc3[nH]cc(Sc4cccs4)c23)c1 [Compound P-0160] | –
≤ 10 | – | ≤ 10 | c1ccc(-c2cnc3[nH]ccc3c2)cc1 [Compound P-0279] | IC50 [5]: ≤ 10 µM; IC50 [7]: ≤ 10 µM
≤ 10 | – | – | Cc1cccc(N(C)c2ccnc3[nH]ccc23)c1 [Compound P-0155] | –
≤ 10 | – | ≤ 10 | Fc1ccc(-c2c(CSCc3ccco3)[nH]c3ncccc23)cc1 [Compound P-0064] | IC50 [4]: ≤ 10 µM; IC50 [5]: ≤ 10 µM
≤ 10 | – | ≤ 10 | c1cnc2[nH]cc(-c3ccoc3)c2c1 [Compound P-0260] | –
– | – | – | Cc1[nH]c2ncccc2c1-c1ccc(F)c(Cl)c1 [Compound P-1146] | IC50 [8]: ≤ 10 µM
≤ 10 | ≤ 10 | – | CN(c1ccccc1)c1ccnc2[nH]ccc12 [Compound P-0118] | –
≤ 10 | ≤ 10 | ≤ 10 | O=C(O)/C=C/c1cccc(-c2ccnc3[nH]cc(C(=O)c4ccc(Cl)cc4)c23)c1 [Compound P-0100] | IC50 [4]: ≤ 10 µM
≤ 10 | – | – | COc1ccc(-c2c(CSCC(C)C)[nH]c3ncccc23)cc1 [Compound P-0313] | IC50 [7]: ≤ 10 µM
≤ 10 | – | – | c1coc(-c2ccnc3[nH]ccc23)c1 [Compound P-0445] | –
≤ 10 | – | – | COc1ccccc1Cc1c[nH]c2ncccc12 [Compound P-0406] | –
≤ 10 | – | – | COc1cccc(-c2cnc3[nH]cc(Sc4cccs4)c3c2)c1 [Compound P-0417] | –
≤ 10 | – | ≤ 10 | COC(c1c(F)ccc(N(Cc2ccccc2)Cc2ccccc2)c1F)c1c[nH]c2ncc(-c3cccnc3)cc12 (stereo not shown) [Compound P-0143] | IC50 [9]: ≤ 10 µM
≤ 10 | – | – | Brc1c[nH]c2ncccc12 [Compound P-0201] | –
≤ 10 | – | – | Cn1nc(C(C)(C)C)cc1C(=O)c1c[nH]c2nccc(-c3cccc(/C=C/C(=O)O)c3)c12 [Compound P-0546] | –
– | – | – | CC(C)CCc1c[nH]c2ncccc12 [Compound P-0797] | IC50 [8]: ≤ 10 µM
≤ 10 | – | – | O=C1c2ccccc2C(=O)N1Cc1ccc(-c2cnc3[nH]ccc3c2)cc1 [Compound P-0281] | –
– | – | – | COc1cccc(C(=O)c2ccc(-c3cnc4[nH]ccc4c3)s2)c1 [Compound P-0494] | IC50 [8]: ≤ 10 µM
– | – | – | COc1ccc(CCCc2c[nH]c3ncccc23)cc1 [Compound P-0437] | IC50 [8]: ≤ 10 µM
≤ 10 | ≤ 10 | ≤ 10 | Cc1ccc(-c2ccnc3[nH]cc(Sc4cccs4)c23)cc1[N+](=O)[O-] [Compound P-0199] | –
≤ 10 | – | ≤ 10 | c1coc(-c2nc(-c3ccnc4[nH]ccc34)no2)c1 [Compound P-0319] | –
≤ 10 | – | ≤ 10 | O=C(c1ccc(Nc2cccc(O)c2)nc1)c1c[nH]c2ncccc12 [Compound P-0189] | IC50 [10]: ≤ 10 µM; IC50 [1]: ≤ 10 µM; IC50 [7]: ≤ 10 µM

IC50 [2] [µM] | IC50 [3] [µM] | IC50 [6] [µM] | SMILES | other results
≤ 10 | – | – | Cc1cc(C(=O)c2c[nH]c3nccc(-c4cccc(/C=C/C(=O)O)c4)c23)n(C)n1 [Compound P-0469] | IC50 [4]: ≤ 10 µM
≤ 10 | ≤ 10 | ≤ 10 | OCc1cccc(-c2ccnc3[nH]cc(Sc4cccs4)c23)c1 [Compound P-0071] | IC50 [4]: ≤ 10 µM
≤ 10 | ≤ 10 | ≤ 10 | OC(c1ccc(NCc2ccc(Cl)cc2)nc1)c1c[nH]c2ncccc12 (stereo not shown) [Compound P-0261] | –
≤ 10 | – | – | c1csc(-c2c[nH]c3ncccc23)c1 [Compound P-0253] | IC50 [5]: ≤ 10 µM
≤ 10 | – | – | c1cc2cc(-c3ccoc3)cnc2[nH]1 [Compound P-0372] | –
– | – | – | CCCCN(c1ccc(F)c(Cc2c[nH]c3ncc(-c4cccnc4)cc23)c1F)S(=O)(=O)c1ccc(C(F)(F)F)cc1 [Compound P-1401] | IC50 [8]: ≤ 10 µM
≤ 10 | ≤ 10 | – | COc1cccc(NC(=S)N2CCC(C(=O)c3c[nH]c4ncccc34)CC2)c1 [Compound P-0208] | –
≤ 10 | – | – | CC(=O)c1cccc(-c2cnc3[nH]ccc3c2)c1 [Compound P-0080] | IC50 [7]: ≤ 10 µM
≤ 10 | – | ≤ 10 | O=C(O)/C=C/c1ccc(-c2ccnc3[nH]ccc23)cc1 [Compound P-0203] | –
≤ 10 | ≤ 10 | ≤ 10 | Cn1cccc1C(=O)c1c[nH]c2ncccc12 [Compound P-0147] | –
≤ 10 | – | – | N#Cc1ccnc2[nH]cc(Sc3cccs3)c12 [Compound P-0370] | –
≤ 10 | ≤ 10 | ≤ 10 | O=C(c1ccc(Oc2cc(Cl)cc(Cl)c2)o1)c1c[nH]c2ncccc12 [Compound P-0295] | –
≤ 10 | – | – | Cc1ccc(Sc2c[nH]c3nccc(-c4cccc(CO)c4)c23)cc1 [Compound P-0250] | IC50 [4]: ≤ 10 µM
≤ 10 | – | – | O=C(c1ccc(NCC2CCCCC2)nc1)c1c[nH]c2ncccc12 [Compound P-0471] | –
≤ 10 | ≤ 10 | – | Cc1ccsc1Cc1c[nH]c2ncccc12 [Compound P-0191] | –
≤ 10 | ≤ 10 | – | O=C(c1ccc(Nc2cccc(OCc3ccccc3)c2)nc1)c1c[nH]c2ncccc12 [Compound P-0355] | –
≤ 10 | – | – | c1ccc(Nc2c[nH]c3ncccc23)cc1 [Compound P-0221, N-phenyl-1H-pyrrolo[2,3-b]pyridin-3-amine] | –
≤ 10 | – | – | c1ccc(COc2cccc(Cc3c[nH]c4ncc(-c5ccsc5)cc34)c2)cc1 [Compound P-0132] | IC50 [1]: ≤ 10 µM; IC50 [5]: ≤ 10 µM; IC50 [7]: ≤ 10 µM
≤ 10 | – | – | Cc1ccc(S(=O)(=O)Nc2ccc(Cc3c[nH]c4ncccc34)cc2)cc1 [Compound P-0426] | IC50 [1]: ≤ 10 µM
≤ 10 | – | ≤ 10 | Fc1cccc(-c2ccnc3[nH]ccc23)c1 [Compound P-0225] | –
≤ 10 | ≤ 10 | ≤ 10 | O=C(O)/C=C/c1cccc(-c2ccnc3[nH]cc(C(=O)c4cccc(Cl)c4Cl)c23)c1 [Compound P-0110] | IC50 [4]: ≤ 10 µM
≤ 10 | – | – | O=C(c1cccc(F)c1)c1ccc(-c2cnc3[nH]ccc3c2)s1 [Compound P-0235] | IC50 [5]: ≤ 10 µM
≤ 10 | ≤ 10 | – | CC(C)CNc1ccc(C(O)c2c[nH]c3ncccc23)cn1 (stereo not shown) [Compound P-0185] | –
≤ 10 | ≤ 10 | ≤ 10 | CC(=O)c1cccc(-c2ccnc3[nH]cc(Sc4cccs4)c23)c1 [Compound P-0092] | –
≤ 10 | – | ≤ 10 | c1coc(CNCc2c[nH]c3ncccc23)c1 [Compound P-0322] | –
≤ 10 | – | – | CC(C)CNc1ccc(C(=O)c2c[nH]c3ncccc23)cn1 [Compound P-0251] | –

SMILES | IC50 [2] [µM] | IC50 [3] [µM] | IC50 [6] [µM] | other results
O=C(c1c[nH]c2ncccc12)C1CCCCC1 [Compound P-0407] | ≤ 10 | – | – | –
